Data taken from ChEMBL document CHEMBL1151014, “Tetrazole-substituted ureas as inhibitors of acyl-CoA:cholesterol O-acyltransferase (ACAT). A novel preparation of ureas from weakly nucleophilic amines” (Bioorg Med Chem Lett, 1996).
One block for each compound: values may come before it.

Columns and labels:
Rattus norvegicus = assay: Total serum cholesterol level was measured in rats after administering single high-fat, high cholesterol meal; format: functional
[1] = target: T1, Sterol O-acyltransferase 1 (Rattus norvegicus, UniProt O70536); assay: Liver ACAT inhibitory activity was determined in vitro using [1-14C]oleolyl-CoA and microsomes isolated from the livers of cholesterol fed rats; parameters: species or system Microsome
T1 sequence (O70536 whole entry): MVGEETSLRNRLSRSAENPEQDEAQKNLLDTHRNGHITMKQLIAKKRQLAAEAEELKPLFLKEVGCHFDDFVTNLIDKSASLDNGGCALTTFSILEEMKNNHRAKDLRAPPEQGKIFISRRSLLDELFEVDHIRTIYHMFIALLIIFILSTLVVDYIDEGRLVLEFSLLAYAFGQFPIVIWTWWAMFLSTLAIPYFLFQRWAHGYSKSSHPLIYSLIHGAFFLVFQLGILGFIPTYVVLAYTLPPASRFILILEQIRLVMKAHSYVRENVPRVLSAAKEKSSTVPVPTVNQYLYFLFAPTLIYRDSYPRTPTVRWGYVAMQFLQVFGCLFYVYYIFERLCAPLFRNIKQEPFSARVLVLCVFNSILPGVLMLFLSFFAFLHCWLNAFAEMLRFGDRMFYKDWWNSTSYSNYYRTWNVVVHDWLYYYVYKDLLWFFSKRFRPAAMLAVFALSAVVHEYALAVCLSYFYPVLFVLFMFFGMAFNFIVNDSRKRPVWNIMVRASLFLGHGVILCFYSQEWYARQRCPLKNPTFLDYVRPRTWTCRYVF

[2] = target: T1, Sterol O-acyltransferase 1; assay: Liver Acyl coenzyme A:cholesterol acyltransferase inhibitory activity was determined in vitro using [1-14C]oleolyl-CoA and microsomes isolated from the livers of cholesterol fed rats; parameters: species or system Microsome
Oryctolagus cuniculus [3] = assay: Compound was tested for systemic bioactivity in plasma, drawn four hours post dose from cholesterol -fed rabbit, with rat liver microsomes (ABIO) at a dose of 22 mg/kg; format: functional; details: 4 h
[4] = target: T2, Sterol O-acyltransferase 1 (Mus musculus, UniProt Q61263); assay: Compound was tested for its ability to penetrate the cell wall and inhibit macrophage ACAT in cell culture using murine IC-21 macrophages (MAI); format: functional
T2 sequence (Q61263 whole entry): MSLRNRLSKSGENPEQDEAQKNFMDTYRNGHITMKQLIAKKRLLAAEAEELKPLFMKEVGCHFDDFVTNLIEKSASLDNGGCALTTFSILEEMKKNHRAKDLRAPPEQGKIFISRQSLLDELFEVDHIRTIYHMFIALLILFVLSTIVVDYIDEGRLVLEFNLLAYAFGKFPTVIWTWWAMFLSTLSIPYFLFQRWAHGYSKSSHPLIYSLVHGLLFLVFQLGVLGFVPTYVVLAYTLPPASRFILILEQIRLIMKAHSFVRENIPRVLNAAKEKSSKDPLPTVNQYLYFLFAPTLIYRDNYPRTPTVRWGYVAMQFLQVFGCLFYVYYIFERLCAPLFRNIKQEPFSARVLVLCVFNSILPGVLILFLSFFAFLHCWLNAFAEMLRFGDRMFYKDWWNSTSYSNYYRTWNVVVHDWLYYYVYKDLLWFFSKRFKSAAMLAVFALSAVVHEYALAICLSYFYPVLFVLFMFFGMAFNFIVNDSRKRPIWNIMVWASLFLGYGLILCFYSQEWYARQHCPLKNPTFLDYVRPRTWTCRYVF

Oryctolagus cuniculus [5] = assay: Compound was tested for systemic bioactivity in plasma, drawn four hours post dose from cholesterol -fed rabbit, with rat liver microsomes (ABIO) at a dose of 24 mg/kg; format: functional; details: 4 h
Oryctolagus cuniculus [6] = assay: Compound was tested for percent change in total serum cholesterol relative to progression control in an injured cholesterol-fed rabbit (ICFR) model at a dose of 5 mg/kg; format: functional
Oryctolagus cuniculus [7] = assay: Compound was tested for percent change in total serum cholesterol relative to progression control in an injured cholesterol-fed rabbit (ICFR) model at a dose of 25 mg/kg; format: functional
Oryctolagus cuniculus [8] = assay: Compound was tested for systemic bioactivity in plasma, drawn four hours post dose from cholesterol -fed rabbit, with rat liver microsomes (ABIO) at a dose of 5 mg/kg; format: functional; details: 4 h
[9] = target: T2, Sterol O-acyltransferase 1; assay: Compound was tested for its ability to penetrate the cell wall and inhibit macrophage ACAT in cell culture using murine IC-21 macrophages (MAI) at 0.1 uM; not active; format: functional
Oryctolagus cuniculus [10] = assay: Compound was tested for percent change in plasma triglycerides relative to progression control in an injured cholesterol-fed rabbit (ICFR) model at a dose of 5 mg/kg; format: functional
Oryctolagus cuniculus [11] = assay: Anti-atherosclerosis activity was determined by measuring the thoracic aortic lesion coverage in an injured cholesterol-fed rabbit (ICFR) model at a dose of 5 mg/kg; format: functional, Aorta
Oryctolagus cuniculus [12] = assay: Compound was tested for systemic bioactivity in plasma, drawn four hours post dose from cholesterol -fed rabbit, with rat liver microsomes (ABIO) at a dose of 25 mg/kg; format: functional; details: 4 h
Oryctolagus cuniculus [13] = assay: Anti-atherosclerosis activity was determined by measuring the thoracic aortic lesion coverage in an injured cholesterol-fed rabbit (ICFR) model at a dose of 25 mg/kg; format: functional, Aorta
Oryctolagus cuniculus [14] = assay: Compound was tested for percent change in plasma triglycerides relative to progression control in an injured cholesterol-fed rabbit (ICFR) model at a dose of 25 mg/kg(p<0.10); format: functional
Oryctolagus cuniculus [15] = assay: Anti-atherosclerosis activity was determined by measuring the thoracic aortic lesion coverage in an injured cholesterol-fed rabbit (ICFR) at a dose of 25 mg/kg; format: functional, Aorta
Oryctolagus cuniculus [16] = assay: Compound was tested for percent change in plasma triglycerides relative to progression control in an injured cholesterol-fed rabbit (ICFR) model at a dose of 25 mg/kg; format: functional

SMILES: CCCCCn1nnc(N(C(=O)Nc2c(OC)cc(OC)cc2OC)c2ccccc2)n1
- Delta TC (Rattus norvegicus): -43%
- IC50 [1]: 450 nM

SMILES: CC(C)c1cccc(C(C)C)c1NC(=O)N(c1ccccc1)c1nnn(CCCCCCCCOC2CCCCO2)n1 (stereo not drawn)
- Delta TC (Rattus norvegicus): 42%
- IC50 [2]: 16 nM

SMILES: COc1cc(OC)c(NC(=O)N(c2ccccc2)c2nnn(CCCCCCCCOC3CCCCO3)n2)c(OC)c1 (stereo not drawn)
- Delta TC (Rattus norvegicus): -50%
- IC50 [2]: 41 nM

SMILES: CCCCCCCCCCCCn1nnc(N(C(=O)Nc2c(C(C)C)cccc2C(C)C)C2CCCCC2)n1
- Delta TC (Rattus norvegicus): 10%
- inhibition in vivo at 24 mg/kg (Oryctolagus cuniculus [5]): 77%
- IC50 [4]: 3100 nM
- IC50 [2]: 31 nM

SMILES: CCCCCCCCCCCCn1nnc(N(C(=O)Nc2c(C(C)C)cccc2C(C)C)c2ccccc2)n1
- inhibition in vivo at 22 mg/kg (Oryctolagus cuniculus [3]): 79%
- Delta TC (Rattus norvegicus): 52%
- IC50 [4]: 240 nM

SMILES: CCCCCCCCCCC(C)(C)C(=O)Nc1c(OC)cc(OC)cc1OC [CL-976]
- Delta TC (Oryctolagus cuniculus [7]): -24%
- Lesion coverage (Oryctolagus cuniculus [15]): 39%
- inhibition in vivo at 25 mg/kg (Oryctolagus cuniculus [12]): 73%
- Delta TG (Oryctolagus cuniculus [16]): -7%

Now from value to compound, other results behind:

- IC50 [2]: 40 nM
SMILES: COc1cc(OC)c(NC(=O)N(c2ccccc2)c2nnn(CCCCCCCCCC(C)C)n2)c(OC)c1

- IC50 [2]: 290 nM
SMILES: CCCCCCCCCCCCn1nnc(N(CCCCCCC)C(=O)Nc2c(OC)cc(OC)cc2OC)n1
- Delta TC (Rattus norvegicus): -20%

- IC50 [2]: 71 nM
SMILES: CCCCCCCCCCCCCCn1nnc(N(C(=O)Nc2c(OC)cc(OC)cc2OC)c2ccccc2)n1
- Delta TC (Rattus norvegicus): -22%

- IC50 [2]: 35 nM
SMILES: CCCCCCCCCCCCn1nnc(N(Cc2ccccc2)C(=O)Nc2c(OC)cc(OC)cc2OC)n1

- IC50 [4]: 890 nM
- IC50 [1]: 61 nM
SMILES: CCCCCCCCCCCCn1nnc(N(C(=O)Nc2c(OC)cc(OC)cc2OC)c2ccccc2)n1
- inhibition in vivo at 22 mg/kg (Oryctolagus cuniculus [3]): 58%
- Delta TC (Rattus norvegicus): 74%

- IC50 [9]: Not Active
- IC50 [1]: 57 nM
SMILES: CCCCCCCCCCCCn1nnc(N(C(=O)Nc2c(OC)cc(OC)cc2OC)C2CCCCC2)n1
- Delta TC (Oryctolagus cuniculus [6]): 22%
- Delta TC (Oryctolagus cuniculus [7]): 21%
- inhibition in vivo at 5 mg/kg (Oryctolagus cuniculus [8]): 0%
- Delta TC (Rattus norvegicus): 67%
- Delta TG (Oryctolagus cuniculus [10]): 4%
- Lesion coverage (Oryctolagus cuniculus [11]): 49%
- inhibition in vivo at 25 mg/kg (Oryctolagus cuniculus [12]): 58%
- Lesion coverage (Oryctolagus cuniculus [13]): 44%
- Delta TG (Oryctolagus cuniculus [14]): 68%
